This is an account of results in patent US10800757B2, “Inhibitors of TRPC6” (Boehringer Ingelheim International GmbH, priority 2017, dated 2020).

Structures can show the parent of a compound that is named as a salt.

Chain of TRPC6 (Q9Y210 whole entry, species assumed): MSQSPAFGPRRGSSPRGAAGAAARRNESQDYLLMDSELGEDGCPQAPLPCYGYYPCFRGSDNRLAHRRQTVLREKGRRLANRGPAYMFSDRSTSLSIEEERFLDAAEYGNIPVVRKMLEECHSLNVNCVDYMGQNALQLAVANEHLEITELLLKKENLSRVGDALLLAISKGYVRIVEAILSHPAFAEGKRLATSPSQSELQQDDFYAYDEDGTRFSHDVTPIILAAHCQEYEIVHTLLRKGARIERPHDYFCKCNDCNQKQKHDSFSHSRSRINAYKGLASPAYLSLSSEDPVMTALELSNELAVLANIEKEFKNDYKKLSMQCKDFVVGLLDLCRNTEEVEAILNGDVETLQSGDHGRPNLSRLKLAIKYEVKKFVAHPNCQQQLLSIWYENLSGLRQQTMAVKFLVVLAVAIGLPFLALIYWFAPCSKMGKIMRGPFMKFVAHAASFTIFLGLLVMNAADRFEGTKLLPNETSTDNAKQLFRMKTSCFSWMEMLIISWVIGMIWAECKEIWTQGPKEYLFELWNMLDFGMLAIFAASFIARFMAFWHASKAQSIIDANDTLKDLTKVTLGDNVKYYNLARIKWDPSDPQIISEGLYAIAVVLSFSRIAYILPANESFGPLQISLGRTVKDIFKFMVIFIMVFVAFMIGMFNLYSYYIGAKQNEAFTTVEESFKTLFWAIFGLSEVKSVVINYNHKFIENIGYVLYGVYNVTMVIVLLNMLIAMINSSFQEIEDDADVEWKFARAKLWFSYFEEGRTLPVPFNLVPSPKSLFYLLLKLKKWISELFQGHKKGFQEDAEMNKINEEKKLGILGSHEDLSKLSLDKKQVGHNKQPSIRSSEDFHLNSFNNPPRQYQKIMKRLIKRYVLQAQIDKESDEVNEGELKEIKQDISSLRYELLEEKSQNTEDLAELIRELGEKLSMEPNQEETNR

For the experiment, the target named is TRPC6 (Homo sapiens (Human), UniProt Q9Y210). As to the kind of experiment: High throughput screening assay: fluorescent calcium (Fluo4/AM) assay of TRPC6 channel activation by GSK1702934A in HEK293/TREx cells. It counts as cell-based. The conditions noted are these: HEK293/TREx cells stably transfected with TRPC6; agonist GSK1702934A; 7 concentrations 20 μM to 0.027 μM, triplicate. The text has this:
This screening assay measures TRPC6 (transient receptor potential cation channel, subfamily C, member 6) ion channel activation via addition either of the commercially available DAG ligand analogue OAG (1-oleoyl-2-acetyl-sn-glycerol) or of the TRPC6 agonist 1-[1-(4,5,6,7,8-pentahydrocyclohepta[2,1-d]thiophen-2-ylcarbonyl)-4-piperidyl]-3-hydrobenzimidazol-2-one (GSK1702934A). The assay utilizes a FLIPR fluorescent calcium sensor 4-(6-Acetoxymethoxy-2,7-difluoro-3-oxo-9-xanthenyl)-4′-methyl-2,2′-(ethylenedioxy)dianiline-N,N,N′,N′-tetraacetic acid tetrakis(acetoxymethyl) ester (Fluo4/AM) […]. Changes (increases) in intracellular membrane calcium concentration potential as measured by the fluorescent signal increase during membrane depolarization provide a measurement of channel activity.
The commercially available HEK293/TREx line (Invitrogen) was stably transfected with a TRPC6 construct and screened by conventional calcium imaging to find clones with TRPC6 expression following stimulation with 1 μg/ml tetracycline. These cells were maintained in the growth medium recommended by the manufacturer supplemented with 100 μg/ml hygromycin to promote retention of the TRPC6 construct. After growing to near confluency, cells were plated at a density of ^˜35,000 cells/well in 384 well CellBind plates (Corning) in the presence of 1 μg/ml tetracycline, and allowed to grow for 20-30 hrs. A nearly confluent monolayer resulted. Growth media was removed from the wells and cells were then loaded with […] Fluo4/AM diluted in Ringer's Solution (6.5 g NaCl, 0.42 g KCl, 0.25 g CaCl2) and 0.2 g of sodium bicarbonate; pH 7.4) supplemented with 1% Pluronic F-127 to a final concentration of 0.5 μM and incubated for 60 min, at room temperature. Dye solution was then removed from the cells by inverting plates with a sharp flick, and replaced with 25 μl Ringer's. Following ^˜0.5 hour for recovery from loading, cells were assayed using the Hamamatsu FDSS 6000 system, which permitted illumination at 485 nm. Frames were acquired at a rate of 0.2 Hz. During the assay, the plates were continuously vortexed, with pipette mixing of wells following addition of each reagent. For the screening assay, 26 μl of a diluted compound stock (at 50 μM) was added to each well for 2 minutes following the collection of a short (4 frame) baseline. 13 μl of agonist solution consisting of 125 nM GSK1702934A diluted in high-Ca2+Ringer solution (containing 90 mm Ca2+) was then added to each well, achieving a final concentration of 20 mm Ca2+ and 10 μM test compound. Data was collected for ^˜3 minutes following addition of high Ca2+Ringer. The fluorescent ratio for each well was divided by the initial fluorescent intensity for that well and the overall response was determined by averaging the fluorescent ratio of the last 4 frames acquired during the experiment excepting the final frame. Negative and Positive controls were included on each plate. Negative controls wells consisted of HEK293/TREx TRPC6 cells exposed to assay buffer and agonist solution, but no test compound. Positive control consisted of wells consisted of HEK293/TREx TRPC6 cells exposed to 25 μM 3-[(2-chlorophenoxy)methyl]phenyl piperidyl ketone (Chembridge) diluted in Ringer's solution and agonist solution. These controls defined zero percent and 100 percent block respectively, and intensity of each well was normalized to these values.
Compounds were tested in triplicate at all concentrations. Standard software was used to fit IC50 curves.
For `COc1cc(C(=O)N2CCC(c3cnc(N)cc3C)CC2)ncc1Oc1ccc(F)cc1` [Compound 2, (6-Amino-4-methyl-3′,4′,5′,6′-tetrahydro-2′H-[3,4′]bipyridinyl-1′-yl)-[5-(4-fluoro-phenoxy)-4-methoxy-pyridin-2-yl]-methanone], the IC50 was less than 27 nM. With `COc1cc(C(=O)N2CCC(c3ccc(N)nn3)CC2)ncc1O[C@@H](C)C1CC1` [Compound 79, [4-(6-Amino-pyridazin-3-yl)-piperidin-1-yl]-[5-((S)-1-cyclopropyl-ethoxy)-4-methoxy-pyridin-2-yl]-methanone], the half-maximal inhibitory concentration (IC50) is 3700 nM.

Consider `COc1cc(N)ncc1N1CCN(C(=O)c2ccc(Oc3ccccc3)cn2)[C@@H]([C@@H](C)O)C1` [Compound 50, (1R)-1-[(2R)-4-(6-amino-4-methoxypyridin-3-yl)-1-(5-phenoxypyridine-2-carbonyl)piperazin-2-yl]ethan-1-ol], for which the IC50 is 47 nM.

In the case of `COc1cc(C(=O)N2CCN(c3cnc(N)cc3OC)C[C@H]2CO)ncc1Oc1ccc(F)cc1` [Compound 63, [(S)-4-(6-Amino-4-methoxy-pyridin-3-yl)-2-hydroxymethyl-piperazin-1-yl]-[5-(4-fluoro-phenoxy)-4-methoxy-pyridin-2-yl]-methanone], the IC50 worked out at 670 nM. The same measure for `COc1ccc(Oc2cnc(C(=O)N3CCC(c4cc(OC)c(N)nn4)CC3)cc2OC)cc1` [Compound 60, [4-(6-Amino-5-methoxy-pyridazin-3-yl)-piperidin-1-yl]-[4-methoxy-5-(4-methoxy-phenoxy)-pyridin-2-yl]-methanone]: 440 nM; for `COc1cc(C(=O)N2CCC(c3ccc(N)nn3)CC2)ncc1Oc1ccc(Cl)cc1` [Compound 34, [4-(6-Amino-pyridazin-3-yl)-piperidin-1-yl]-[5-(4-chloro-phenoxy)-4-methoxy-pyridin-2-yl]-methanone]: 85 nM. With `COc1cc(C(=O)N2CCC(c3cc(OC)c(N)nn3)CC2)ncc1Oc1ccc(F)cc1` [Compound 11, [4-(6-Amino-5-methoxy-pyridazin-3-yl)-piperidin-1-yl]-[5-(4-fluoro-phenoxy)-4-methoxy-pyridin-2-yl]-methanone], the IC50 worked out at 27 nM. The same measure for `COc1cc(C(=O)N2CCC(c3cnc(N)cc3OC)CC2)ncc1OCc1ccccc1` [Compound 43, (6-Amino-4-methoxy-3′,4′,5′,6′-tetrahydro-2′H-[3,4′]bipyridinyl-1′-yl)-(5-benzyloxy-4-methoxy-pyridin-2-yl)-methanone]: 140 nM; for `COc1cc(C(=O)N2CCC(c3nnc(N)cc3C)CC2)ncc1Oc1ccc(C(F)(F)F)cc1` [Compound 90, 6-(1-{4-Methoxy-5-[4-(trifluoromethyl)phenoxy]pyridine-2-carbonyl}piperidin-4-yl)-5-methylpyridazin-3-amine trifluoroacetic acid]: 364 nM; for `COc1cc(C(=O)N2CCC(c3nnc(N)cc3OC)CC2)ncc1Oc1ccc(C(F)(F)F)cc1` [Compound 56, [4-(6-Amino-4-methoxy-pyridazin-3-yl)-piperidin-1-yl]-[4-methoxy-5-(4-trifluoromethyl-phenoxy)-pyridin-2-yl]-methanone]: 290 nM. The result for `COc1cc(C(=O)N2CCC(c3cnc(N)cc3OC)CC2)ncc1OCC(C)C` [Compound 39, 4-Methoxy-5-{1-[4-methoxy-5-(2-methylpropoxy)pyridine-2-carbonyl]piperidin-4-yl}-pyridin-2-amine trifluoroacetic acid] reads 170 nM. The same measure for `COc1cc(C(=O)N2CCC(c3nnc(N)cc3C)CC2)ncc1Oc1ccc(F)cc1` [Compound 29, 6-{-[5-(4-Fluorophenoxy)-4-methoxypyridine-2-carbonyl]piperidin-4-yl}-5-methylpyridazin-3-amine trifluoroacetic acid]: 110 nM; for `COc1cc(C(=O)N2CCN(c3cnc(N)cc3OC)C[C@@H]2CO)ncc1Oc1ccc(F)cc1` [Compound 42, [(R)-4-(6-Amino-4-methoxy-pyridin-3-yl)-2-hydroxymethyl-piperazin-1-yl]-[5-(4-fluoro-phenoxy)-4-methoxy-pyridin-2-yl]-methanone]: 140 nM; for `COc1cc(C(=O)N2CCC(c3cnc(N)cc3OC)CC2)ncc1OC[C@H]1C[C@H](C(F)(F)F)C1` [Compound 92, TFA salt of 4-Methoxy-5-[1-(4-methoxy-5-{[3-(trifluoromethyl)-cyclobutyl]methoxy}-pyridine-2-carbonyl)piperidin-4-yl]pyridin-2-amin]: 635 nM. On to `COc1cc(C(=O)N2CCC(c3ccc(N)nn3)CC2)ncc1OCCc1ccccc1` [Compound 73, [4-(6-Amino-pyridazin-3-yl)-piperidin-1-yl]-(4-methoxy-5-phenethyloxy-pyridin-2-yl)-methanone], for which the IC50 is 1300 nM.

As to `COc1cc(C(=O)N2CCC(c3ccc(N)nn3)CC2)ncc1OCC(C)C` [Compound 36, [4-(6-Amino-pyridazin-3-yl)-piperidin-1-yl]-(5-isobutoxy-4-methoxy-pyridin-2-yl)-methanone], the 50% inhibitory concentration (IC50) was 97 nM.

As for `COc1cc(C(=O)N2CCN(c3cnc(N)cc3OC)C[C@H]2CO)ncc1Oc1ccccc1` [Compound 71, [(S)-4-(6-Amino-4-methoxy-pyridin-3-yl)-2-hydroxymethyl-piperazin-1-yl]-(4-methoxy-5-phenoxy-pyridin-2-yl)-methanone], the IC50 stood at 850 nM. On to `COc1cc(C(=O)N2CCC(c3ccc(N)nn3)CC2)ncc1OCc1ccccc1F` [Compound 57, [4-(6-Amino-pyridazin-3-yl)-piperidin-1-yl]-[5-(2-fluoro-benzyloxy)-4-methoxy-pyridin-2-yl]-methanone], for which the IC50 was found to be 300 nM.

Take `COc1cc(C(=O)N2CCC(c3cnc(N)cc3OC)CC2)ncc1Oc1ccc(C(F)(F)F)cc1` [Compound 24, (6-Amino-4-methoxy-3′,4′,5′,6′-tetrahydro-2′H-[3,4′]bipyridinyl-1′-yl)-[4-methoxy-5-(4-trifluoromethyl-phenoxy)-pyridin-2-yl]-methanone]: the IC50 was 67 nM. The same measure for `COc1cc(C(=O)N2CCN(c3cnc(N)cc3OC)CC2)ncc1OCC1CC1` [Compound 61, [4-(6-Amino-4-methoxy-pyridin-3-yl)-piperazin-1-yl]-(5-cyclopropylmethoxy-4-methoxy-pyridin-2-yl)-methanone]: 500 nM; for `COc1cc(C(=O)N2CCN(c3ccc(N)nc3)CC2)ncc1Oc1ccc(F)cc1` [Compound 13, [4-(6-Amino-pyridin-3-yl)-piperazin-1-yl]-[5-(4-fluoro-phenoxy)-4-methoxy-pyridin-2-yl]-methanone]: 27 nM.

Take `COC[C@H]1CN(c2cnc(N)cc2OC)CCN1C(=O)c1cc(OC)c(Oc2ccc(F)cc2)cn1` [Compound 55, [(R)-4-(6-Amino-4-methoxy-pyridin-3-yl)-2-methoxymethyl-piperazin-1-yl]-[5-(4-fluoro-phenoxy)-4-methoxy-pyridin-2-yl]-methanone]: the IC50 worked out at 220 nM. With `COc1cc(C(=O)N2CCC(c3cnc(N)cc3OC)CC2)ncc1OCC(C)C(F)(F)F` (single isomer, unassigned) [Compound 94b, 4-Methoxy-5-(1-{4-methoxy-5-[3,3,3-trifluoro-2-methylpropoxy]pyridine-2-carbonyl}piperidin-4-yl)-pyridin-2-amine], the IC50 was found to be 351 nM. As for `COc1cc(C(=O)N2CCN(c3ccc(N)nc3)C[C@@H]2CO)ncc1Oc1ccccc1` [Compound 81, [(R)-4-(6-Amino-pyridin-3-yl)-2-hydroxymethyl-piperazin-1-yl]-(4-methoxy-5-phenoxy-pyridin-2-yl)-methanone], the IC50 came out at 71 nM. The same measure for `COc1cc(C(=O)N2CCC(c3cnc(N)cc3OC)CC2)ncc1OC1CCCCC1` [Compound 30, (6-Amino-4-methoxy-3′,4′,5′,6′-tetrahydro-2′H-[3,4′]bipyridinyl-1′-yl)-(5-cyclohexyloxy-4-methoxy-pyridin-2-yl)-methanone]: 110 nM.
